# In patent US20060178307A1, “Modulation of NMDA receptor currents via orexin receptor and/or CRF receptor” (priority 2005, published 2006):
# Entries after “also recorded” stand apart in the source; their conditions may differ. Where no end group is shown, it is not given here.
# What was measured:
# [1] = system: AMPAR mEPSCs; assay: AMPAR-mediated miniature EPSCs (mEPSCs) in VTA neurons; assay type: cell-based, rat; conditions: APV 50 μM 3 min prior and during orexin application
# Description: Next, to investigate whether AMPAR function and/or number was modified with orexin A treatment, AMPAR-mediated miniature EPSCs (mEPSCs) were examined (a standard method for determining the locus of synaptic change). Compared to untreated neurons, orexin A (100 nM) caused a significant increase in both amplitude (FIG. 6C,D,F) and frequency (FIG. 6C,E,G) 3-4 hours after application (24±1.6 pA; 2.4±0.5 Hz; n=7 vs control: 13±1.3 pA; 0.93±0.16 Hz; n=7; FIG. 6A), but not at 15 min (15±1.7 pA; 0.9±0.1 Hz; n=[…], FIG. 6B).
# AMPAR mEPSCs were recorded in cells voltage-clamped at −70 mV in lidocaine (500 μM), APV (50 μM) and sucrose (100 mM). NMDAR mEPSCs were recorded at −40 mV in Mg2+-free external solution with lidocaine (500 μM), glycine (20 μM), and CNQX (10 μM). mEPSCs were collected using Clampex (Axon Instruments) and analyzed using Mini Analysis Program (Synaptosoft). Detection criteria were set at >10 pA, <1 ms rise-time, and <3 ms decay-time for AMPAR mEPSCs and >10 pA, <1 ms rise-time, and <10 ms decay-time for NMDAR mEPSCs. mEPSC traces were recorded while sampling every 10 μs, the images were filtered at 5 kHz. Averaged mEPSCs were constructed using Mini Analysis Program (Synaptosoft).
# [2] = system: NMDAR-mediated EPSCs in VTA dopamine neurons; assay: Evoked NMDAR-mediated EPSCs, whole-cell voltage clamp at +40 mV, VTA neurons in midbrain slices; assay type: cell-based, rat; conditions: for effect on potentiation of NMDAR-mediated EPSCs by orexin A: inhibitor 100 μM in patch pipette; for effect on potentiation of NMDAR-mediated EPSCs by 100 nM orexin A: inhibitor 1 μM in patch pipette
# Description: Excitatory postsynaptic currents (EPSCs) were recorded from VTA neurons in rat midbrain slices. EPSCs were evoked while holding neurons in voltage clamp at +40 mV. Measurements were taken 20 ms after the stimulus artifact, a time point at which the glutamatergic EPSC is mediated purely by NMDARs.
# The patch pipette was loaded with the PLC inhibitor, U-73122 (1 μM, FIG. 2A, C, n=6) or the PKC inhibitor, chelerythrin (1 μM, FIG. 1A, B, n=6). […] Next, the protein kinase A inhibitor, PKI (20 μM, FIG. 2A, F, n=8) or Rp-cAMPs, a blocker of cAMP (100 μM, FIG. 2A, E, n=5) was added to the patch pipette.
# Activation of PKC is implicated in NMDAR-dependent long-term potentiation (Malinow et al., 1989) and it modulates NMDAR trafficking to the membrane (Lan et al., 2001; Scott et al., 2001; Fong et al., 2002). NMDARs can translocate from intracellular or extrasynaptic pools to synaptic sites (Lan et al., 2001; Tovar and Westbrook, 2002). […] In a separate group of slices, orexin A (100 nM, n=6) was applied for 5 min during the washout period.
# All of the electrophysiological recordings were performed in rats ranging from P21 to P30. Briefly, rats were anesthetized with halothane and sacrificed. Horizontal sections of the VTA ([…]) were prepared with a vibratome (Leica, Nussloch, Germany). Slices were placed in a holding chamber and allowed to recover for at least 1 hour before being placed in the recording chamber and superfused with bicarbonate-buffered solution (ACSF) saturated with 95% O2/5% CO2 and containing (in mM): 119 NaCl, 1.6 KCl, 1.0 NaH2PO4, 1.3 MgCl2, 2.5 CaCl2, 26.2 NaHCO3 and 11 glucose (at 32-34° C.). Picrotoxin (100 μM) was added to block GABAA receptor-mediated inhibitory postsynaptic currents. Cells were visualized using infrared differential interference contrast video microscopy. Whole-cell voltage clamp recordings were made using an Axopatch 1D amplifier (Axon Instruments, Union City, Calif.). Electrodes (2.8-4.0 MΩ) contained (in mM): 120 Cesium Methansulfonate, 20 HEPES, 0.4 EGTA, 2.8 NaCl, 5 TEA-Cl, 2.5 MgATP, and 0.25 NaGTP, pH 7.2-7.3 (270-285 mOsm). Series resistance (10-40 MΩ) and input resistance were monitored on-line with a 4-mV depolarizing step (50 ms) given just after every afferent stimulus. Dopaminergic VTA neurons were identified by the presence of a large Ih current (Lacey et al., 1990; Johnson and North, 1992) and, in some cases, tyrosine hydroxylase labeling. A bipolar stimulating electrode was placed 100-300 μm rostral to the recording electrode and was used to stimulate excitatory afferents at 0.1 Hz. Neurons were voltage-clamped at −70 mV and +40 mV to record AMPAR- and NMDAR-mediated EPSCs.
# [3] = system: AMPAR/NMDAR ratio of EPSCs in VTA dopamine cells; assay: AMPAR/NMDAR ratio in VTA slices 24 hr after 5-day in vivo treatment; parameters: species or system rat; conditions: cocaine 15 mg/kg, 5-day treatment, n=4
# Description: The next study investigated whether orexin signaling in the VTA is required for the long-term plasticity associated with the development of behavioral sensitization. Long-term synaptic plasticity at excitatory synapses on VTA neurons was examined 24 hr after a 5-day treatment of cocaine (15 mg/kg) or saline (0.9%), a time course shown to induce long-lasting locomotor sensitization to cocaine (Thomas et al., 2001), with or without the OXR1 antagonist, SB 334867 (10 mg/kg, FIG. 5). To assay for synaptic plasticity, the relative contributions of AMPARs and NMDARs to EPSCs recorded in VTA dopamine cells were compared. Consistent with the potentiation observed following acute and 7-day cocaine treatments (Borgland et al., 2004), 5-day treatment with cocaine potentiated the AMPAR/NMDAR ratio compared to saline controls (FIG. 5A, saline: 0.4±0.07, n=4; cocaine: 0.8±0.1, n=4, p<0.05). This potentiation of synaptic plasticity was blocked by 5-day treatment with the OXR1 antagonist, SB 334867, administered 15 min prior to cocaine or saline (FIG. 5A, saline+SB334867: 0.4±0.02, n=5 vs. cocaine+SB334867: 0.5±0.08, n=11, p>0.05). Since OXR1 antagonists block cocaine-mediated potentiation of the AMPAR/NMDAR ratio, orexin A may either facilitate cocaine-mediated synaptic plasticity or enhance synaptic transmission itself. A 5-min orexin A application was performed to determine whether this caused changes in AMPAR/NMDAR ratio either 15 min or 3-4 hours after application (FIG. 5B).
# To calculate the AMPAR/NMDAR ratio, an average of 12 EPSCs at +40 mV was computed before and after application of the NMDAR blocker, AP5 (50 μM) for 5 min. NMDAR responses were calculated by subtracting the average response in the presence of AP5 (AMPAR only) from that seen in its absence; the peak of the AMPAR EPSC was divided by the peak of the NMDAR EPSC to yield an AMPAR/NMDAR ratio.
# Male Sprague-Dawley Rats (P21-P30; Charles River, N.C.) were singly housed with food and water available ad libitum. A 12 hr light/dark cycle was used, with the lights on at 7:00 A.M. All cocaine injections and behavioral testing were performed during the light cycle for consecutive days. The four treatment groups consisted of rats given 5 daily i.p. injections of SB 334867 (10 mg/kg) 15 min preceding i.p. injection of cocaine (15 mg/kg) or saline (0.9% NaCl), or i.p. injections of vehicle (10% DMSO and 25% β-hydroxy cyclodextrin in saline) 15 min preceding i.p. injection of cocaine or saline. […] Locomotor activity was measured in 17″×17″ chambers lined with three 16-beam I/R arrays. […] Distance traveled was measured using Open Field Activity Software (Med Associates, Inc) and analyzed for estimates of locomotion based on the movement of a given distance and resting delay (movement in a given period of time).
# [4] = system: locomotor activity; assay: Locomotor sensitization to cocaine, i.p. OXR1 antagonist, open field; assay type: in vivo, Sprague-Dawley rats; conditions: n=13
# Description: To determine if orexin signaling plays a role in behavioral sensitization to cocaine, either the OXR1 antagonist SB 334867 (10 mg/kg, i.p.) or vehicle was injected 15 min prior to injecting cocaine (15 mg/kg, i.p) or saline (0.9%), and then the rats were placed in an open field chamber to measure locomotor activity for 1 hour each day for 5 days.
# Therefore, to determine if expression of cocaine sensitization requires release of orexin acting at the OXR1 receptor, the OXR1 antagonist SB 334867 (10 mg/kg) was injected with cocaine (15 mg/kg) on day 6 into either cocaine-sensitized or saline-treated rats.
# Male Sprague-Dawley Rats (P21-P30; Charles River, N.C.) were singly housed with food and water available ad libitum. A 12 hr light/dark cycle was used, with the lights on at 7:00 A.M. All cocaine injections and behavioral testing were performed during the light cycle for consecutive days. The four treatment groups consisted of rats given 5 daily i.p. injections of SB 334867 (10 mg/kg) 15 min preceding i.p. injection of cocaine (15 mg/kg) or saline (0.9% NaCl), or i.p. injections of vehicle (10% DMSO and 25% β-hydroxy cyclodextrin in saline) 15 min preceding i.p. injection of cocaine or saline. All animals were habituated to the photocell boxes (Med Associates, St. Albans, Vt.) for 2 hours prior to the start of the experiment. All animals were further habituated to the photocell boxes for 30 min prior to 60 min testing session. Locomotor activity was measured in 17″×17″ chambers lined with three 16-beam I/R arrays. A 50 ms scanning rate was used for measurement of beams broken. Distance traveled was measured using Open Field Activity Software (Med Associates, Inc) and analyzed for estimates of locomotion based on the movement of a given distance and resting delay (movement in a given period of time).
# [5] = system: locomotor activity; assay: Locomotor sensitization to cocaine, intra-VTA OXR1 antagonist, 7-day paradigm; assay type: in vivo, Sprague-Dawley rats; conditions: control animals: intra-VTA vehicle + cocaine 15 mg/kg
# Description: Male Sprague-Dawley rats (250 grams) were implanted with bilateral cannulae directed at the VTA (AP, −5.2; ML, ±0.5, DV −8.0). Following recovery from surgery, animals were tested in a cocaine sensitization assay similar to that used for systemic administration of the OXR1 antagonist, but with two changes: a 7-day sensitization paradigm was used, and the OXR1 antagonist SB 334867 was microinjected directly into the VTA (6 μg/hemisphere in 300 nL solution composed of 10% DMSO in water). All other methods for habituation and data collection were identical to that described above. Rats were deeply anesthetized with pentobarbital, and perfused with a 10% formaldehyde solution. Brains were cryoprotected in 25% sucrose, 40 μm coronal sections were cut on a freezing microtome, and sections were mounted, dried and coverslipped. Injection sites were located under a light microscope and recorded on atlas figures adapted from Paxinos and Watson (1997).
# [6] = system: NMDAR-mediated currents in VTA dopamine cells; assay: CRF-related peptides on NMDAR-mediated currents at excitatory synapses onto VTA dopamine cells; assay type: cell-based; conditions: mammalian brain
compound,measurement,setting,value
"N[C@H](CCCP(=O)(O)O)C(=O)O [APV, D (−)-2-Amino-5-phosphonopentanoic acid]",effect on orexin A-induced increase in AMPAR mEPSC amplitude at 3-4 hours,[1],significantly reduced; also recorded: blocked
C[C@H](NC(c1cccc2[nH]c(=O)c(=O)[nH]c12)P(=O)(O)O)c1ccc(Br)cc1 (stereo partly shown) [NVP-AAM077],remaining current,"[2]; NVP-AAM077 0.4 μM applied during peak increase induced by 100 nM orexin A, n=6",87±11%
same,effect on expression of orexin A-mediated potentiation of NMDAR EPSCs,[2]; NVP-AAM077 0.4 μM applied during peak of potentiation,blocked; also recorded: reversed
same,effect on ability of 100 nM orexin A to potentiate NMDAR EPSCs,[2]; NVP-AAM077 0.4 μM pre-applied,significantly reduced
same,inhibition of NMDAR EPSCs,"[2]; bath application 0.4 μM, n=6",54±7%
"O=C(O)C1NCCN(C(=O)c2ccc3c(ccc4ccccc43)c2)C1C(=O)O (stereo not shown) [PPDA, 1-(phenantrene-2carbonyl) piperazine-2,3-dicarboxylic acid]",additional inhibition of NMDAR EPSCs,[2]; 1 μM on top of NVP-AAM077 and ifenprodil,10%
same,effect on orexin A (100 nM)-mediated NMDAR potentiation,[2]; PPDA 1 μM after co-application of NVP-AAM077 and ifenprodil,blocked
same,remaining current,"[2]; PPDA 1 μM with NVP-AAM077 and ifenprodil, n=6",14±2.2%
Nc1ncnc2c1ncn2[C@@H]1O[C@@H]2CO[P@@](O)(=S)O[C@H]2[C@H]1O [Rp-cAMPs],effect on potentiation of NMDAR-mediated EPSCs by orexin A,[2]; n=5,robust potentiation
same,effect on potentiation of NMDAR-mediated EPSCs by orexin A,"[2]; n=5, listed as Rp-cAMPS",did not block
COc1ccc2c(c1)CC[C@@H]1[C@@H]2CC[C@]2(C)[C@@H](NCCCCCCN3C(=O)C=CC3=O)CC[C@@H]12 [U-73122],effect on potentiation of NMDAR-mediated EPSCs by 100 nM orexin A,[2]; n=6,completely blocked
same,effect on potentiation of NMDAR-mediated EPSCs by 100 nM orexin A,"[2]; n=6, listed as U73122",blocked
[Zn+2] [Zn^2+],inhibition of NMDAR EPSCs,"[2]; 100 nM, n=6",13±8%
same,inhibition of NMDAR EPSCs,"[2]; 300 nM, n=5",29±9%
same,effect on orexin A-mediated potentiation of NMDARs,[2]; Zn2+ 300 nM,significantly reduced; also recorded: mostly blocked
COc1ccc2c(c[n+](C)c3c4cc5c(cc4ccc23)OCO5)c1OC [chelerythrin],effect on potentiation of NMDAR-mediated EPSCs by 100 nM orexin A,[2]; n=6,completely blocked
COC(=O)[C@H]1[C@@H](OC(=O)c2ccccc2)C[C@@H]2CC[C@H]1N2C [cocaine],AMPAR/NMDAR ratio,[3],0.8±0.1
same,distance traveled on day 5,"[4]; cocaine-only-treated rats, 15 mg/kg i.p.",20347±5643 cm
same,locomotor activity on day 1,[4]; cocaine-treated rats given vehicle,5692±1579 cm
same,mean locomotor distance on day 7,[5],34162±4477 cm
CC(C(O)c1ccc(O)cc1)N1CCC(Cc2ccccc2)CC1 (stereo not shown) [ifenprodil],remaining current after application,[2]; bath-applied 3 μM,71±6%
same,effect on orexin A-mediated potentiation of NMDAR EPSCs,[2]; ifenprodil 3 μM bath-applied,no significant effect; also recorded: not affected
"Urocortin II: peptide that does not bind CRF-BP (IVLSLDVPIGLLQILLEQARARAAREQATTNARILARVGHC; ends and bridges not checked; UniProt Q96RP3 72-112, looked up)",potentiation of NMDAR currents,[6],do not potentiate
"Urocortin: may be the endogenous CRF-R2 ligand and also binds CRF-BP (DNPSLSIDLTFHLLRTLLELARTQSQRERAEQNRIIFDSV; ends and bridges not checked; UniProt P55089 83-122, looked up)",potentiation of NMDAR currents,[6],mimics CRF
"ovine CRF: CRF form that does not bind CRF-BP (SQEPPISLDLTFHLLREVLEMTKADQLAQQAHSNRKLLDIA; ends and bridges not checked; UniProt P01142 148-188, looked up)",potentiation of NMDAR currents,[6],do not potentiate
